For series [1], the system named is ovine meniscal chondrocytes P3. The experiment in a line: Cytotoxicity on chondrocyte culture, PicoGreen DNA assay. It counts as cell-based. The settings on record: 48 h incubation, DNA by PicoGreen assay. From the text:
The high chemical reactivity of protease inhibitors represents toxicological problems both in vitro and potentially in vivo. […] DNA concentrations were obtained using a PicoGreen assay.

The next series has as its target Elastase. As to conditions: Elastase (1.2 μg/ml), 20° C., 0.2M TRIS buffer.
The next series concerns the target Thrombin (Homo sapiens, UniProt P00734). The experiment in a line: biochemical.

The text below walks through data of US8506945B2, “Polymers with structure-defined functions” (Smith & Nephew, PLC., priority 2001, dated 2013).

A word on the IC50: it is the concentration needed to halve the response being measured. `NCCc1ccc(S(=O)(=O)F)cc1` [AEBSF, 4-(2-aminoethyl)benzenesulphonylfluoride]: in series [1], the “concentration at which significant toxicity deviation from the vehicle alone begins” value was 8000 ng/mL. The half-inhibitory concentration (IC50) against Elastase was found to be 312 µM; on Thrombin, 712 µM.
